According to patent US12428378B2, “Methods and materials for increasing level of phosphorylated AMPK protein” (University of Pittsburgh—Of the Commonwealth System of …, priority 2019, dated 2025):

Tested on: pAMPK
Experiment: pAMPK immunostaining chemiluminescence assay in Beas2B cells
Format: cell-based
Conditions: Homo sapiens, BEAS-2B, 18 h, DMEM no glucose media, compounds 3-34, 36-44, 47-60 tested as HCl salts, read-out: efficacy (minimal compound concentration needed to increase pAMPK by 30%)
Protocol: Beas2B cells were plated in 384 white nunc plate (4000 cells per well) for overnight. Compounds were serially diluted in DMEM no glucose media using the liquid handler. Cells were washed once using Biotek EL406 before compound addition for additional 18 hours. Cells were washed and fixed with PFA before immunostained with pAMPK primary antibody and anti-Rabbit HRP secondary antibody. Finally, 25 μl of ECL reagent will be added to cells, and chemical luminescence signal will be counted using plate reader. Compounds efficacies (μM) were determined by the minimal compound concentration needed to increase pAMPK by 30%. Activity: “+” equals >10 μM; “++” equals between ≤10 μM and >1 μM; and “+++” equals ≤1 μM.

`O[C@@H](COc1ccc(C(F)(F)F)cc1)CN(Cc1ccccc1)Cc1ccccc1` [compound 1] and `O[C@H](COc1ccc(C(F)(F)F)cc1)CN(Cc1ccccc1)Cc1ccccc1` [compound 2] fall in the same range of EC (30% increase): 1 to 10 µM for the first, 1 to 10 µM for the second.

`OC(COc1ccc(C(F)(F)F)cc1)CN(CC1CCCCC1)CC1CCCCC1` (stereo not shown) [compound 3] and `OC(COc1ccc(C(F)(F)F)cc1)CN(Cc1cccnc1)Cc1cccnc1` (stereo not shown) [compound 7] cannot be ordered by EC (30% increase): 1 to 10 µM for the first, ≤ 1 µM for the second.

`Cc1ccccc1CN(Cc1ccccc1C)CC(O)COc1ccc(C(F)(F)F)cc1` (stereo not shown) [compound 4] and `Cc1ccccc1CN(Cc1ccccc1)CC(O)COc1ccc(C(F)(F)F)cc1` (stereo not shown) [compound 5] cannot be ordered by EC (30% increase): ≤ 1 µM for the first, 1 to 10 µM for the second.

`OC(COc1ccc(C(F)(F)F)cc1)CN(CCc1ccccc1)Cc1ccccc1` (stereo not shown) [compound 6] and `OC(COc1ccc(C(F)(F)F)cc1)CN(Cc1ccccc1)Cc1cccnc1` (stereo not shown) [compound 43] cannot be ordered by EC (30% increase): 1 to 10 µM for the first, ≤ 1 µM for the second.

`Cc1ccccc1CN(Cc1cccnc1)CC(O)COc1ccc(C(F)(F)F)cc1` (stereo not shown) [compound 8] and `OC(COc1ccc(C(F)(F)F)cc1)CN(Cc1cccnc1)Cc1ccccc1Cl` (stereo not shown) [compound 25] cannot be ordered by EC (30% increase): ≤ 1 µM for the first, ≤ 1 µM for the second.

`OC(COc1cccnc1)CN(Cc1ccccc1)Cc1ccccc1` (stereo not shown) [compound 9] and `OC(COc1ccncc1)CN(Cc1ccccc1)Cc1ccccc1` (stereo not shown) [compound 17] cannot be ordered by EC (30% increase): > 10 µM for the first, > 10 µM for the second.

First: OC(COc1ccccn1)CN(Cc1ccccc1)Cc1ccccc1 (stereo not shown) [compound 10]
Second: OC(COc1ncccn1)CN(Cc1ccccc1)Cc1ccccc1 (stereo not shown) [compound 15]
The EC (30% increase) of the first is lower: 1 to 10 µM for the first, > 10 µM for the second.

First: CN(CC(O)COc1ccc(C(F)(F)F)cc1)CC(c1ccccc1)c1ccccc1 (stereo not shown) [compound 11]
Second: OC(CNCC(c1ccccc1)c1ccccc1)COc1ccc(C(F)(F)F)cc1 (stereo not shown) [compound 14]
The EC (30% increase) of the first is lower: 1 to 10 µM for the first, > 10 µM for the second.

`CC(CNCC(O)COc1ccc(C(F)(F)F)cc1)(c1ccccc1)c1ccccc1` (stereo not shown) [compound 12] and `Cc1ccccc1CN(CC(O)COc1ccc(C(F)(F)F)cc1)C(=O)c1ccccc1` (stereo not shown) [compound 66] cannot be ordered by EC (30% increase): 1 to 10 µM for the first, ≤ 1 µM for the second.

`OC(COc1ccc(C(F)(F)F)cc1)CN(Cc1ccccc1)Cc1cncnc1` (stereo not shown) [compound 13] and `Cc1ccccc1CN(Cc1cncnc1)CC(O)COc1ccc(C(F)(F)F)cc1` (stereo not shown) [compound 23] cannot be ordered by EC (30% increase): ≤ 1 µM for the first, ≤ 1 µM for the second.

`OC(COc1cncnc1)CN(Cc1ccccc1)Cc1ccccc1` (stereo not shown) [compound 16] and `Cc1cccc(C)c1OCC(O)CN(Cc1ccccc1)Cc1ccccc1` (stereo not shown) [compound 18] cannot be ordered by EC (30% increase): 1 to 10 µM for the first, ≤ 1 µM for the second.

First: OC(COc1ccc(C(F)(F)F)cc1)CN1Cc2ccccc2C1 (stereo not shown) [compound 19]
Second: OC(COc1ccc(C(F)(F)F)cc1)CN1Cc2ccccc2CC1c1ccccc1 (stereo not shown) [compound 20]
The EC (30% increase) of the first is higher: > 10 µM for the first, 1 to 10 µM for the second.

`OC(COc1ccc(C(F)(F)F)cc1)CN1Cc2ccccc2C1c1ccccc1` (stereo not shown) [compound 22] and `OC(COc1ccc(C(F)(F)F)cc1)CN1Cc2ccccc2CC1c1cccnc1` (stereo not shown) [compound 56] cannot be ordered by EC (30% increase): 1 to 10 µM for the first, ≤ 1 µM for the second.

Going from `Cc1ccccc1CN(Cc1cccnc1)CC(O)COc1ccc(C(F)(F)F)cn1` (stereo not shown) [compound 24] to `Cc1ncccc1CN(Cc1cccnc1)CC(O)COc1ccc(C(F)(F)F)cc1` (stereo not shown) [compound 28], the EC (30% increase) falls from > 10 µM to ≤ 1 µM.

`Cc1ncccc1CN(Cc1ccccc1)CC(O)COc1ccc(C(F)(F)F)cc1` (stereo not shown) [compound 26] and `Cc1ccncc1CN(Cc1ccccc1)CC(O)COc1ccc(C(F)(F)F)cc1` (stereo not shown) [compound 27] cannot be ordered by EC (30% increase): ≤ 1 µM for the first, ≤ 1 µM for the second.

`Cc1ccncc1CN(Cc1cccnc1)CC(O)COc1ccc(C(F)(F)F)cc1` (stereo not shown) [compound 29] and `Cc1ccncc1CN(Cc1cnccc1C)CC(O)COc1ccc(C(F)(F)F)cc1` (stereo not shown) [compound 33] cannot be ordered by EC (30% increase): ≤ 1 µM for the first, 1 to 10 µM for the second.

`Cc1ncccc1CN(Cc1cccnc1C)CC(O)COc1ccc(C(F)(F)F)cc1` (stereo not shown) [compound 30] and `Cc1ccncc1CN(Cc1cccnc1C)CC(O)COc1ccc(C(F)(F)F)cc1` (stereo not shown) [compound 32] cannot be ordered by EC (30% increase): 1 to 10 µM for the first, ≤ 1 µM for the second.

`Cc1ccncc1C1OC(COc2ccc(C(F)(F)F)cc2)CN1Cc1cccnc1` (stereo not shown) [compound 31] and `Cc1ccccc1CN(Cc1cccnc1)C(=O)CCOc1ccc(C(F)(F)F)cc1` [compound 64] fall in the same range of EC (30% increase): 1 to 10 µM for the first, 1 to 10 µM for the second.

`O=C(CCOc1ccc(C(F)(F)F)cc1)N(Cc1ccccc1)Cc1ccccc1` [compound 35] and `[2H]C([2H])(c1cccnc1)N(Cc1ccccc1)CC(O)COc1ccc(C(F)(F)F)cc1` (stereo not shown) [compound 47] cannot be ordered by EC (30% increase): 1 to 10 µM for the first, ≤ 1 µM for the second.

`Cc1ccccc1CN(Cc1ncc[nH]1)CC(O)COc1ccc(C(F)(F)F)cc1` (stereo not shown) [compound 36] and `Cc1ccccc1CN(Cc1nccs1)CC(O)COc1ccc(C(F)(F)F)cc1` (stereo not shown) [compound 70] cannot be ordered by EC (30% increase): ≤ 1 µM for the first, ≤ 1 µM for the second.

`Cc1ccccc1CN(Cc1cc[nH]n1)CC(O)COc1ccc(C(F)(F)F)cc1` (stereo not shown) [compound 37] and `Cc1ccccc1CN(Cc1c[nH]cn1)CC(O)COc1ccc(C(F)(F)F)cc1` (stereo not shown) [compound 69] cannot be ordered by EC (30% increase): 1 to 10 µM for the first, ≤ 1 µM for the second.

`Cc1ccccc1CN(Cc1cnn(C)c1)CC(O)COc1ccc(C(F)(F)F)cc1` (stereo not shown) [compound 38] and `Cc1ccccc1CN(CC(O)COc1ccc(C(F)(F)F)cc1)C(=O)c1cnn(C)c1` (stereo not shown) [compound 82] cannot be ordered by EC (30% increase): 1 to 10 µM for the first, ≤ 1 µM for the second.

`Cc1ccccc1CN(Cc1cnc[nH]1)CC(O)COc1ccc(C(F)(F)F)cc1` (stereo not shown) [compound 39] and `Cc1ccccc1CN(Cc1cncs1)CC(O)COc1ccc(C(F)(F)F)cc1` (stereo not shown) [compound 40] cannot be ordered by EC (30% increase): 1 to 10 µM for the first, ≤ 1 µM for the second.

`OC(COc1ccc(C(F)(F)F)cc1)CN(Cc1ccncc1)Cc1ccncc1` (stereo not shown) [compound 41] and `OC(COc1ccc(C(F)(F)F)cc1)CN(Cc1ccccn1)Cc1ccccn1` (stereo not shown) [compound 42] cannot be ordered by EC (30% increase): 1 to 10 µM for the first, ≤ 1 µM for the second.

`Cc1ccccc1CN(Cc1ccc(C(F)(F)F)nc1)CC(O)COc1ccc(F)cc1` (stereo not shown) [compound 44] and `Cc1ccccc1CN(Cc1ccc(=O)[nH]c1)CC(O)COc1ccc(C(F)(F)F)cc1` (stereo not shown) [compound 59] cannot be ordered by EC (30% increase): ≤ 1 µM for the first, 1 to 10 µM for the second.

`Cc1ccccc1CN(CC(O)COc1ccc(C(F)(F)F)cc1)C(=O)c1cccnc1` (stereo not shown) [compound 45] and `Cc1ccccc1CN(CC(O)COc1ccc(C(F)(F)F)cc1)C(=O)c1cn[nH]c1` (stereo not shown) [compound 76] cannot be ordered by EC (30% increase): ≤ 1 µM for the first, 1 to 10 µM for the second.

`CC(c1cccnc1)N(Cc1ccccc1)CC(O)COc1ccc(C(F)(F)F)cc1` (stereo not shown) [compound 46] and `OC(COc1ccc(C(F)(F)F)cc1)CN(Cc1ccccc1)C1(c2cccnc2)CC1` (stereo not shown) [compound 48] cannot be ordered by EC (30% increase): ≤ 1 µM for the first, ≤ 1 µM for the second.

Compared with `Cc1ccccc1CN(Cc1cccc(C(N)=O)c1)CC(O)COc1ccc(C(F)(F)F)cc1` (stereo not shown) [compound 49], `Cc1ccccc1CN(Cc1cccc(C#N)c1)CC(O)COc1ccc(C(F)(F)F)cc1` (stereo not shown) [compound 50] is higher in EC (30% increase): 1 to 10 µM for the first, > 10 µM for the second.

`Cc1ccccc1CN(Cc1ccc[n+]([O-])c1)CC(O)COc1ccc(C(F)(F)F)cc1` (stereo not shown) [compound 51] and `Cc1ccccc1CN(Cc1sccc1C)CC(O)COc1ccc(C(F)(F)F)cc1` (stereo not shown) [compound 71] fall in the same range of EC (30% increase): 1 to 10 µM for the first, 1 to 10 µM for the second.

`Cc1ccccc1CN(CCc1ccccn1)CC(O)COc1ccc(C(F)(F)F)cc1` (stereo not shown) [compound 52] and `Cc1ccccc1CN(Cc1nccn1C)CC(O)COc1ccc(C(F)(F)F)cc1` (stereo not shown) [compound 72] cannot be ordered by EC (30% increase): 1 to 10 µM for the first, ≤ 1 µM for the second.

`Cc1ccccc1CN(CC(O)COc1ccc(C(F)(F)F)cc1)c1cccc2ncccc12` (stereo not shown) [compound 54] and `Cc1ccccc1CN(CC(O)COc1ccc(C(F)(F)F)cc1)c1cccnc1` (stereo not shown) [compound 55] fall in the same range of EC (30% increase): 1 to 10 µM for the first, 1 to 10 µM for the second.

`OC(COc1ccc(C(F)(F)F)cc1)CC1=Nc2ccccc2CC1c1cccnc1` (stereo not shown) [compound 57] and `O=C(CCOc1ccc(C(F)(F)F)cc1)N1Cc2ccccc2CC1c1cccnc1` (stereo not shown) [compound 62] fall in the same range of EC (30% increase): 1 to 10 µM for the first, 1 to 10 µM for the second.

`c1ccc(CN(CCCOc2ccccc2)Cc2ccccc2)cc1` [compound 61] and `Cc1ccccc1CN(Cc1c[nH]nc1-c1ccccc1)CC(O)COc1ccc(C(F)(F)F)cc1` (stereo not shown) [compound 73] fall in the same range of EC (30% increase): 1 to 10 µM for the first, 1 to 10 µM for the second.

`FC(F)(F)c1ccc(OCCCN2Cc3ccccc3CC2c2cccnc2)cc1` (stereo not shown) [compound 65] and `Cc1ccccc1CN(CC(O)COc1ccc(C(F)(F)F)cc1)S(=O)(=O)c1cccnc1` (stereo not shown) [compound 68] cannot be ordered by EC (30% increase): ≤ 1 µM for the first, ≤ 1 µM for the second.

`Cc1ccc(C(=O)N(Cc2ccccc2C)CC(O)COc2ccc(C(F)(F)F)cc2)cc1` (stereo not shown) [compound 67] and `Cc1ccccc1CN(CC(O)COc1ccc(C(F)(F)F)cc1)C(=O)c1cc[nH]n1` (stereo not shown) [compound 75] cannot be ordered by EC (30% increase): ≤ 1 µM for the first, 1 to 10 µM for the second.

`Cc1ccccc1CN(CC(O)COc1ccc(C(F)(F)F)cc1)C(=O)c1c[nH]cn1` (stereo not shown) [compound 74] and `Cc1ccccc1CN(CC(O)COc1ccc(C(F)(F)F)cc1)C(=O)c1cn(C)cn1` (stereo not shown) [compound 80] fall in the same range of EC (30% increase): 1 to 10 µM for the first, 1 to 10 µM for the second.

`Cc1ccccc1CN(CC(O)COc1ccc(C(F)(F)F)cc1)C(=O)c1ncc[nH]1` (stereo not shown) [compound 77] and `Cc1ccccc1CN(CC(O)COc1ccc(C(F)(F)F)cc1)C(=O)c1nccs1` (stereo not shown) [compound 84] cannot be ordered by EC (30% increase): 1 to 10 µM for the first, ≤ 1 µM for the second.

`Cc1ccccc1CN(CC(O)COc1ccc(C(F)(F)F)cc1)C(=O)c1cocn1` (stereo not shown) [compound 78] and `Cc1ccccc1CN(CC(O)COc1ccc(C(F)(F)F)cc1)C(=O)c1cscn1` (stereo not shown) [compound 85] cannot be ordered by EC (30% increase): ≤ 1 µM for the first, 1 to 10 µM for the second.

`Cc1ccccc1CN(CC(O)COc1ccc(C(F)(F)F)cc1)C(=O)c1cnco1` (stereo not shown) [compound 79] and `Cc1ccccc1CN(CC(O)COc1ccc(C(F)(F)F)cc1)C(=O)c1cncn1C` (stereo not shown) [compound 81] cannot be ordered by EC (30% increase): 1 to 10 µM for the first, ≤ 1 µM for the second.

`Cc1ccccc1CN(CC(O)COc1ccc(C(F)(F)F)cc1)C(=O)c1nccn1C` (stereo not shown) [compound 83] was tested, and the EC (30% increase) was ≤ 1 µM.
